In brackets after ≈: the same amount, converted by molar mass.

Here are results for four compounds from ChEMBL document CHEMBL2406981, “Novel pyrazoline amidoxime and their 1,2,4-oxadiazole analogues: synthesis and pharmacological screening” (Bioorg Med Chem Lett, 2013).

The first assay concerns Staphylococcus aureus. As to the kind of experiment: Antimicrobial activity against Staphylococcus aureus MTCC 96. Type of assay: functional.
Conditions: not given
Consider `O=C(N[C@H](CO)[C@H](O)c1ccc([N+](=O)[O-])cc1)C(Cl)Cl` [CHLORAMPHENICOL], for which it took 10 µg/mL (≈ 30.9 µM) to inhibit growth (MIC).

Another assay concerns Radical scavenging activity. As to the kind of experiment: Antioxidant activity assessed as DPPH free radical scavenging activity at 50 ug/ml after 20 mins. Type of assay: functional.
Conditions: not given
Take `O=C1O[C@H]([C@@H](O)CO)C(O)=C1O`: the Activity turned out to be 57%.

In another assay the test system is Bacillus cereus. The assay is described as follows: Antimicrobial activity against Bacillus cereus MTCC 8372 at 50 ug/ml after 24 hrs by agar disc diffusion method. Type of assay: functional. The settings on record: MTCC 8372, 24 h, read-out: DIZ.
On to `O=C(N[C@H](CO)[C@H](O)c1ccc([N+](=O)[O-])cc1)C(Cl)Cl` [CHLORAMPHENICOL], for which the zone of inhibition at 50 µg/mL came out at 10 mm.

For a further assay, the system named is Bacillus cereus. The assay is described as follows: Antimicrobial activity against Bacillus cereus MTCC 8372.
Conditions: not given
Type of assay: functional.
As for `O=C(N[C@H](CO)[C@H](O)c1ccc([N+](=O)[O-])cc1)C(Cl)Cl` [CHLORAMPHENICOL], 10 µg/mL (≈ 30.9 µM) was the least that counted as inhibitory (MIC).

Test system in another assay: not listed separately
The assay is described as follows: Antioxidant activity assessed as reducing power of ferric ion at 10 ug/ml after 20 mins. Also on record: scale not given: the % may be the effect or the level left. Type of assay: functional.
Conditions: not given
`O=C1O[C@H]([C@@H](O)CO)C(O)=C1O`: the Activity came to 14%.

Test system in the next assay: not listed separately
As to the kind of experiment: Antiinflammatory activity against heat-induced albumin denaturation at […] preincubated for 15 mins before heat induction by UV-vis spectrophotometer analysis. Type of assay: functional.
Conditions: not given
`O=C(O)Cc1ccccc1Nc1c(Cl)cccc1Cl`: the inhibition was found to be 84.4%.

The subject of another assay is Klebsiella pneumoniae. The assay is described as follows: Antimicrobial activity against Klebsiella pneumoniae MTCC 3384 at 100 ug/ml after 24 hrs by agar disc diffusion method. Type of assay: functional. The settings on record: MTCC 3384, 24 h, read-out: DIZ.
Regarding `O=C(N[C@H](CO)[C@H](O)c1ccc([N+](=O)[O-])cc1)C(Cl)Cl` [CHLORAMPHENICOL], the zone of inhibition at 100 µg/mL worked out at 20 mm.

In another assay the test system is Aspergillus flavus. As to the kind of experiment: Antimicrobial activity against Aspergillus flavus MTCC 873 at 50 ug/ml after 24 hrs by agar disc diffusion method. Type of assay: functional. As to conditions: MTCC 873, 24 h, read-out: DIZ. (Agar diffusion results depend on both activity and mobility in agar.)
For `OC(Cn1cncn1)(Cn1cncn1)c1ccc(F)cc1F` [FLUCONAZOLE], the zone of inhibition at 50 µg/mL was determined as 16 mm.

A further assay has as its system Aspergillus niger. As to the kind of experiment: Antimicrobial activity against Aspergillus niger MTCC 281 at 50 ug/ml after 24 hrs by agar disc diffusion method. Type of assay: functional. The settings on record: MTCC 281, 24 h, read-out: DIZ.
With `OC(Cn1cncn1)(Cn1cncn1)c1ccc(F)cc1F` [FLUCONAZOLE], the zone of inhibition at 50 µg/mL was 20 mm.

The test system of a further assay is Aspergillus flavus. As to the kind of experiment: Antimicrobial activity against Aspergillus flavus MTCC 873 at 100 ug/ml after 24 hrs by agar disc diffusion method. As to conditions: MTCC 873, 24 h, read-out: DIZ. Type of assay: functional.
Consider `OC(Cn1cncn1)(Cn1cncn1)c1ccc(F)cc1F` [FLUCONAZOLE], for which the zone of inhibition at 100 µg/mL was 28 mm.

Another assay deals with Klebsiella pneumoniae. The assay is described as follows: Antimicrobial activity against Klebsiella pneumoniae MTCC 3384. Type of assay: functional.
Conditions: not given
Compound `O=C(N[C@H](CO)[C@H](O)c1ccc([N+](=O)[O-])cc1)C(Cl)Cl` [CHLORAMPHENICOL] yielded an MIC of 10 µg/mL (≈ 30.9 µM).

A further assay concerns Escherichia coli. The assay is described as follows: Antimicrobial activity against Escherichia coli MTCC 724 at 50 ug/ml after 24 hrs by agar disc diffusion method. Type of assay: functional. The settings on record: MTCC 724, 24 h, read-out: DIZ.
As to `O=C(N[C@H](CO)[C@H](O)c1ccc([N+](=O)[O-])cc1)C(Cl)Cl` [CHLORAMPHENICOL], the zone of inhibition at 50 µg/mL is 10 mm.

A further assay has as its system Staphylococcus aureus. The assay is described as follows: Antimicrobial activity against Staphylococcus aureus MTCC 96 at 100 ug/ml after 24 hrs by agar disc diffusion method. Type of assay: functional. The settings on record: MTCC 96, 24 h, read-out: DIZ.
For the compound `O=C(N[C@H](CO)[C@H](O)c1ccc([N+](=O)[O-])cc1)C(Cl)Cl` [CHLORAMPHENICOL], the zone of inhibition at 100 µg/mL was found to be 16 mm.

In a further assay the test system is Aspergillus niger. As to the kind of experiment: Antimicrobial activity against Aspergillus niger MTCC 281. Type of assay: functional.
Conditions: not given
`OC(Cn1cncn1)(Cn1cncn1)c1ccc(F)cc1F` [FLUCONAZOLE] displayed an MIC of 5 µg/mL (≈ 16.3 µM).

Another assay concerns Shigella flexneri. The assay is described as follows: Antimicrobial activity against Shigella flexneri MTCC 1457. Type of assay: functional.
Conditions: not given
Regarding `O=C(N[C@H](CO)[C@H](O)c1ccc([N+](=O)[O-])cc1)C(Cl)Cl` [CHLORAMPHENICOL], the lowest concentration to inhibit growth (MIC) was 10 µg/mL (≈ 30.9 µM).

Another assay deals with Staphylococcus aureus. The assay is described as follows: Antimicrobial activity against Staphylococcus aureus MTCC 96 at 50 ug/ml after 24 hrs by agar disc diffusion method. Type of assay: functional. As to conditions: MTCC 96, 24 h, read-out: DIZ.
With `O=C(N[C@H](CO)[C@H](O)c1ccc([N+](=O)[O-])cc1)C(Cl)Cl` [CHLORAMPHENICOL], the zone of inhibition at 50 µg/mL came to 9 mm.

Test system in a further assay: not listed separately
As to the kind of experiment: Antioxidant activity assessed as reducing power of ferric ion at 50 ug/ml after 20 mins. Type of assay: functional. On the set-up: scale not given: the % may be the effect or the level left.
Conditions: not given
Regarding `O=C1O[C@H]([C@@H](O)CO)C(O)=C1O`, the Activity was found to be 32%.

For the next assay, the system named is Escherichia coli. The assay is described as follows: Antimicrobial activity against Escherichia coli MTCC 724 at 100 ug/ml after 24 hrs by agar disc diffusion method. Type of assay: functional. As to conditions: MTCC 724, 24 h, read-out: DIZ.
On to `O=C(N[C@H](CO)[C@H](O)c1ccc([N+](=O)[O-])cc1)C(Cl)Cl` [CHLORAMPHENICOL], for which the zone of inhibition at 100 µg/mL was found to be 18 mm.

The next assay concerns Aspergillus flavus. As to the kind of experiment: Antimicrobial activity against Aspergillus flavus MTCC 873.
Conditions: not given
Type of assay: functional.
Regarding `OC(Cn1cncn1)(Cn1cncn1)c1ccc(F)cc1F` [FLUCONAZOLE], the MIC was determined as 5 µg/mL (≈ 16.3 µM).

For a further assay, the system named is Aspergillus niger. As to the kind of experiment: Antimicrobial activity against Aspergillus niger MTCC 281 at 100 ug/ml after 24 hrs by agar disc diffusion method. Type of assay: functional. The settings on record: MTCC 281, 24 h, read-out: DIZ.
As for `OC(Cn1cncn1)(Cn1cncn1)c1ccc(F)cc1F` [FLUCONAZOLE], the zone of inhibition at 100 µg/mL was 30 mm.

Test system in the next assay: not listed separately
The assay is described as follows: Antioxidant activity assessed as reducing power of ferric ion at 100 ug/ml after 20 mins. Type of assay: functional. On the set-up: scale not given: the % may be the effect or the level left.
Conditions: not given
`O=C1O[C@H]([C@@H](O)CO)C(O)=C1O`: the Activity amounted to 82%.

The test system of another assay is Shigella flexneri. As to the kind of experiment: Antimicrobial activity against Shigella flexneri MTCC 1457 at 50 ug/ml after 24 hrs by agar disc diffusion method. Type of assay: functional. The settings on record: MTCC 1457, 24 h, read-out: DIZ.
Turning to `O=C(N[C@H](CO)[C@H](O)c1ccc([N+](=O)[O-])cc1)C(Cl)Cl` [CHLORAMPHENICOL], the zone of inhibition at 50 µg/mL worked out at 10 mm.

For another assay, the system named is Shigella flexneri. As to the kind of experiment: Antimicrobial activity against Shigella flexneri MTCC 1457 at 100 ug/ml after 24 hrs by agar disc diffusion method. Type of assay: functional. As to conditions: MTCC 1457, 24 h, read-out: DIZ.
With `O=C(N[C@H](CO)[C@H](O)c1ccc([N+](=O)[O-])cc1)C(Cl)Cl` [CHLORAMPHENICOL], the zone of inhibition at 100 µg/mL is 24 mm.

For the next assay, the system named is Radical scavenging activity. As to the kind of experiment: Antioxidant activity assessed as DPPH free radical scavenging activity at 10 ug/ml after 20 mins. Type of assay: functional.
Conditions: not given
In general terms: DPPH is a stable violet radical that fades when it is reduced.
Take `O=C1O[C@H]([C@@H](O)CO)C(O)=C1O`: the Activity turned out to be 32%.

Another assay has as its system Bacillus cereus. As to the kind of experiment: Antimicrobial activity against Bacillus cereus MTCC 8372 at 100 ug/ml after 24 hrs by agar disc diffusion method. Type of assay: functional. As to conditions: MTCC 8372, 24 h, read-out: DIZ.
In the case of `O=C(N[C@H](CO)[C@H](O)c1ccc([N+](=O)[O-])cc1)C(Cl)Cl` [CHLORAMPHENICOL], the zone of inhibition at 100 µg/mL is 18 mm.

For another assay, the system named is Radical scavenging activity. As to the kind of experiment: Antioxidant activity assessed as DPPH free radical scavenging activity at 100 ug/ml after 20 mins. Type of assay: functional.
Conditions: not given
In the case of `O=C1O[C@H]([C@@H](O)CO)C(O)=C1O`, the Activity stood at 94%.

The test system of another assay is Klebsiella pneumoniae. As to the kind of experiment: Antimicrobial activity against Klebsiella pneumoniae MTCC 3384 at 50 ug/ml after 24 hrs by agar disc diffusion method. As to conditions: MTCC 3384, 24 h, read-out: DIZ. Type of assay: functional.
Consider `O=C(N[C@H](CO)[C@H](O)c1ccc([N+](=O)[O-])cc1)C(Cl)Cl` [CHLORAMPHENICOL], for which the zone of inhibition at 50 µg/mL was 12 mm.

The test system of another assay is Escherichia coli. As to the kind of experiment: Antimicrobial activity against Escherichia coli MTCC 724. Type of assay: functional.
Conditions: not given
Compound `O=C(N[C@H](CO)[C@H](O)c1ccc([N+](=O)[O-])cc1)C(Cl)Cl` [CHLORAMPHENICOL] came in with an MIC of 10 µg/mL (≈ 30.9 µM).

By MIC is commonly meant the lowest concentration found to suppress growth. One may read the inhibition as the change of the read-out against control, counted positive when it falls.
